# Test results reported in article PMC13144739, “Global analysis of cancer cell responses to USP9X inhibition” (The EMBO Journal, 2026).
# How the values were obtained:
# [1] = test system: HMEC-1 cells; assay: Lattice light sheet imaging of mitosis, HMEC-1; assay type: cell-based, human; conditions: 15 µM, imaged 24-48 h
# Method: (§1) MDA-MB-231, MiaPaca2, HMEC-1, SK-MEL-2 and UO-31 cells were seeded at 2–15 × 10^4 cells/mL in 8-well glass µ-slides (ibidi). […] SPY650-Tubulin, SPY555-DNA (both Spirochrome, Inc.), and Annexin V FITC (Sigma-Aldrich) were added at a final concentration of 1 in 1000. Cells were left to grow for 24 h before time-lapse live-cell data were acquired using a Lattice Light Sheet 7 (Zeiss). […] Aberration correction was set to a value of 170 to minimise aberrations as determined by imaging the Point Spread Function using 100 nm fluorescent microspheres. Data were collected with a frame time of 10 ms and a z step of 0.4 μm with 834 frames per 290 μm by 290 μm. Individual regions were imaged in parallel across six wells of the eight-well chamber slide. Data are presented as Maximum Intensity Projections (MIPs), and these MIPs were used for all downstream analysis. Tile regions were imaged for 24 h with 10 min intervals at 37 °C, 5% CO2. Analysis was performed using the MIPs of the different full fields of cells over the 24–48 h time period. Mitosis and mitosis arrest were classified through a combination of automated image analysis and manual validation. […] Small erroneous detected spots were further removed through a manually adjusted size filter. […] The mean intensity of all tracks was then measured to determine mitosis and mitosis arrest. […]
# [2] = Caco-2 cell permeability assessment; assay type: in vitro ADME; conditions: human, 10 µM donor
# Method: The apparent permeability coefficient was assessed using Caco-2 cell monolayers as described previously (Katneni et al, [2018]). […] Compound flux was assessed over a period of up to 120 min, with samples taken from the acceptor chamber at multiple time points. Samples from the donor chamber were taken at the beginning and at the end of the experiment. The mass balance at the end of the permeability experiment was calculated according to the following equation, where compound mass was calculated as the product of molar concentration and volume of donor or acceptor solution: Mass balance%=Massfinal donor+Massfinal acceptor/Massinitial donorx100
# The apparent permeability coefficient (Papp) was determined based on the rate of compound appearance in acceptor buffer at steady state using the following equation: Papp(cm/s)=dQ/dtx1/cinitial donorx A dQ/dt : apparent steady-state transport rate (µmol/s)
# A: surface area of Caco-2 monolayer (0.3 cm^2 in the test system used)
# cinitial donor : concentration in the donor at the start of experiment (µmol/cm^3).
# [3] = test system: HUVEC; assay: Colony formation assay, HUVEC; assay type: cell-based, human; conditions: 10 µM, 7–12 days
# Method: (§2) Cells were seeded at low density (200–4000 cells per well) after initial optimisation in a six-well tissue culture-treated plate (Falcon). Twenty-four hours post seeding, media was replaced, and the inhibitor was added. Cells were left to grow into colonies between 7 and 12 days, depending on the cell line. For analysis, the media was removed, and the cells were fixed with 10% (w/v) formalin for 10 min. Colonies were stained with crystal violet (Sigma-Aldrich, 0.5% [w/v] in 20% [v/v] MeOH) for 10 min and washed thrice with distilled H2O. Plates were imaged using the ChemiDoc imaging system (Bio-Rad) and analysed using the ImageJ ColonyArea plugin as described previously (Guzmán et al, [2014]).
# [4] = test system: ACHN cells; assay: Colony formation assay, ACHN; assay type: cell-based, human; conditions: 10 µM, 7–12 days
# Method: as §2
# [5] = test system: UO-31 cell line; assay: NCI-60 cancer cell panel, UO-31; assay type: cell-based, human; conditions: 10 µM, 3 days
# Method: Inhibitors were tested at 10 µM. Data shown is the mean of two technical replicates and is shown relative to the no-drug control, and relative to the time zero number of cells.
# [6] = test system: PANC-1 cells; assay: Colony formation assay, PANC-1; assay type: cell-based, human; conditions: 10 µM, 7–12 days
# Method: as §2
# [7] = test system: USP24; assay: DUBprofiler DUB selectivity panel, USP24; assay type: biochemical, human; conditions: 50 µM compound
# Method: UAF1 was added to the USP1, USP12 and USP46 reactions (with WDR20 additionally added to the USP12 and USP46 reactions), respectively. Ubiquitin was added to the USP5 reaction at KD. Proteasome-VS was added to the USP14 reaction at KD. OTUD5 p177S was used. The reaction for AMSH-LP was supplemented with Zinc.
# [8] = test system: MiaPaca2 cells; assay: Lattice light sheet imaging of mitosis, MiaPaca2; assay type: cell-based, human; conditions: 15 µM
# Method: as §1
# [9] = test system: SK-MEL-2 cells; assay: Colony formation assay, SK-MEL-2; assay type: cell-based, human; conditions: 10 µM, 7–12 days
# Method: as §2
# [10] = test system: T1, USP24; assay: DUB IP-MS in MCF-7 cell lysates, USP24; assay type: biochemical, human; conditions: 50 µM
# T1 construct: endogenous in cells; host or cells: MCF-7 cell lysate
# Method: MCF-7 cells have been profiled for active DUBs previously (Pinto-Fernández et al, [2019]). Lysates were generated as described by others (Turnbull et al, [2017]) using 30 s freeze-thaw cycles (thrice) in lysis buffer (50 mM Tris [pH 7.4], 5 mM MgCl2 × 6 H2O, 0.5 mM EDTA [pH 8.0], 250 mM sucrose and 1 mM DTT) at pH 7.5. […] A pre-treatment of cell lysates with 0.5 µg Ub-VS was included for a baseline DUB response to the Ub-VS probe. 0.1 µg 3X-FLAG-Ub-VS probe was added to samples and incubated for 5 min at 37 °C. […] Samples were washed thrice with lysis buffer and eluted from the resin with lysis buffer supplemented with 1% (w/v) SDS following a 10 min incubation. Two consecutive elutions were pooled, and samples were stored at −80 °C until processing.
# DNA was hydrolysed with the addition of 2 µL neat TFA, and lysates were neutralised to pH 8.5 by the addition of 1 M Tris-HCl as previously described (Dagley et al, [2019]). Protein concentration was determined using Pierce™ BCA Protein Assay Kit (Thermo Fisher Scientific) following the manufacturer’s instructions. For DUB IP-MS, samples were processed using S-Trap spin columns (Profiti) by following the manufacturer’s instructions. […]
compound,measurement,setting,value
Cc1[nH]c2ccc(C(=O)N3CCN(S(=O)(=O)c4ccc5c(c4)OCCO5)CC3)cc2c1C [WEHI-092],"cell division phenotype, HMEC-1",[1],proceeded through mitosis normally
same,Papp A→B at 10 µM,"[2]; Caco-2, apical-to-basolateral",42.6 ×10⁻⁶ cm/s
same,Papp B→A at 10 µM,"[2]; Caco-2, basolateral-to-apical",70.4 ×10⁻⁶ cm/s
same,"clonogenic potential, HUVEC",[3],limited or no effects
same,"clonogenic potential, ACHN",[4],apparent increase in cell proliferation
same,"cell killing, UO-31",[5],cell death
same,"clonogenic potential, PANC-1",[6],strong decrease in proliferative capacity
same,"inhibition of USP24, commercial panel",[7],not inhibited
same,"apoptosis on metaphase arrest (Annexin V uptake), MiaPaca2",[8],did not trigger apoptosis
same,"cell division phenotype, MiaPaca2",[8]; imaged 24-48 h,significant defects in cell division
same,"clonogenic potential, SK-MEL-2",[9],sensitive
same,inhibition of USP24 in cell lysates (DUB IP-MS),[10],not inhibited
